From article PMC4254008 (European journal of medicinal chemistry, 2014)

Key:
[1] = in vivo; cited from earlier work
[2] = orally ingested, humans; cited from earlier work
[3] = tested on: S. aureus infected thigh muscles; conditions: in vivo; cited from earlier work
[4] = tested on: Staphylococcus aureus enoyl-ACP reductase (saFabI); conditions: cited from earlier work
[5] = tested on: MRSA strain BAA1762; assay: S. aureus thigh muscle infection model, in vivo efficacy; design: species or system Swiss Webster mice; conditions: mouse thigh muscle infection model

## AFN-1252
[1]
  AUC/MIC: 20

## Oc1cc(Cl)ccc1Oc1ccc(Cl)cc1Cl [triclosan]
[2]
  absorption from the gastrointestinal tract: readily absorbed

## [^18F]FDG
[3]
  accumulation in infected thigh relative to healthy thigh: 2.3 – 2.6 times

## CCCCCCc1ccc(Oc2ccccc2C#N)c(O)c1 [PT119]
[4]; on saFabI
  residence time: 750 min
[4]; saFabI
  Ki: 0.01 nM
[5]
  reduction in the CFU's: 3 log
